The supplement of paper PMC10307832

What was measured:
Experiment in all cases: relative viability (nuclei count vs DMSO), 5 days (fraction); higher = more cells survive
[1] = compound: C1CC(C1)(C(=O)O)C(=O)O.[NH2-].[NH2-].[Pt+2] [Carboplatin] + C[C@@H](Oc1cc(-c2cnn(C3CCNCC3)c2)cnc1N)c1c(Cl)ccc(F)c1Cl [Crizotinib] (partner 1 µM)
Outline: (§1)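 Each reported value is a median over duplicate plates. It expresses relative viability: treated-well nuclei count divided by vehicle-well nuclei count. Lung cancer cell lines in 1536-well plates were dosed by pin tool a day after seeding, alone with one drug or with a fixed anchor-drug dose plus five library-drug doses (not always all listed) in √10 steps, and nuclei were counted after 5 days.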

[2] = compound: C1CC(C1)(C(=O)O)C(=O)O.[NH2-].[NH2-].[Pt+2] [Carboplatin] + NC(=O)Nc1cc(-c2cccc(F)c2)sc1C(=O)N[C@H]1CCCNC1 [AZD7762] (partner 0.2 µM)
Outline: as §1

[3] = compound: CC[C@H](C)N1C=C(C2=C(C=C(C=C21)C3=CN=C(C=C3)N4CCNCC4)C(=O)NCC5=C(C=C(NC5=O)C)C)C [GSK126] + CS(=O)(=O)CCNCc1ccc(-c2ccc3ncnc(Nc4ccc(OCc5cccc(F)c5)c(Cl)c4)c3c2)o1 [Lapatinib] (partner 2 µM)
Outline: as §1

[4] = compound: C1CC(C1)(C(=O)O)C(=O)O.[NH2-].[NH2-].[Pt+2] [Carboplatin] + CCNC(=O)c1noc(-c2cc(C(C)C)c(O)cc2O)c1-c1ccc(CN2CCOCC2)cc1 [Luminespib] (partner 0.01 µM)
Outline: as §1

Cell Line | relative viability ([1]; first compound 0.08 µM) | relative viability ([1]; first compound 0.253 µM) | relative viability ([1]; first compound 0.8 µM) | relative viability ([1]; first compound 2.53 µM) | relative viability ([1]; first compound 8 µM) | relative viability ([2]; first compound 0.08 µM) | relative viability ([2]; first compound 0.253 µM) | relative viability ([2]; first compound 0.8 µM) | relative viability ([2]; first compound 2.53 µM) | relative viability ([2]; first compound 8 µM) | relative viability ([3]; first compound 0.08 µM) | relative viability ([3]; first compound 0.253 µM) | relative viability ([3]; first compound 0.8 µM) | relative viability ([3]; first compound 2.53 µM) | relative viability ([3]; first compound 8 µM) | relative viability ([4]; first compound 0.08 µM) | relative viability ([4]; first compound 0.253 µM) | relative viability ([4]; first compound 0.8 µM) | relative viability ([4]; first compound 2.53 µM) | relative viability ([4]; first compound 8 µM)
NCI-H650 | 0.789 | 0.697 | 0.569 | 0.506 | 0.567 | 0.985 | 0.948 | 0.778 | 0.863 | 0.721 | 0.833 | 0.838 | 0.97 | 0.978 | 0.955 | 0.757 | 0.904 | 0.655 | 0.548 | 0.327
NCI-H2170 | 1.13 | 1.18 | 1.21 | 1.13 | 0.971 | 0.944 | 0.934 | 0.995 | 0.724 | 0.385 | 0.253 | 0.266 | 0.319 | 0.288 | 0.27 | 0.911 | 0.783 | 0.47 | 0.351 | 0.283
LC-2-ad | 0.478 | 0.448 | 0.388 | 0.31 | 0.416 | 0.922 | 0.829 | 0.854 | 0.851 | 0.78 | 1.05 | 1.03 | 0.9 | 0.894 | 1.05 | 1.02 | 1.01 | 0.993 | 0.911 | 0.651
NCI-H322M | 1.07 | 0.964 | 0.963 | 0.926 | 0.854 | 0.598 | 0.548 | 0.553 | 0.547 | 0.428 | 0.616 | 0.638 | 0.604 | 0.654 | 0.66 | 1.09 | 0.749 | 0.752 | 0.633 | 0.61
LCLC-97TM1 | 0.338 |  | 0.271 | 0.288 | 0.312 | 0.221 | 0.336 | 0.367 | 0.163 | 0.228 | 1.22 |  | 1.11 | 1.66 | 0.841 | 0.726 | 0.667 | 0.65 | 0.732 | 0.722
NCI-H596 | 0.895 | 0.983 | 0.834 | 0.783 | 0.735 | 1.25 | 1.18 | 1.09 | 0.885 | 0.693 | 1.11 | 0.932 | 0.951 | 1.11 | 1.08 | 1.02 | 1 | 0.4 | 0.342 | 0.746
NCI-H1792 | 1.07 | 1.04 | 0.945 | 0.888 | 0.866 | 0.924 | 0.669 | 0.606 | 0.457 | 0.352 | 0.973 | 0.894 | 0.868 | 0.982 | 0.943 | 0.492 | 0.36 | 0.44 | 0.415 | 0.267
NCI-H1944 | 1.05 | 1.17 | 1 | 0.916 | 0.788 | 0.616 | 0.5 | 0.584 | 0.559 | 0.354 | 1.04 | 0.724 | 0.859 | 0.865 | 0.989 | 0.881 | 0.661 | 0.661 | 0.452 | 0.389
NCI-H1755 | 0.868 | 0.935 | 0.853 | 0.848 | 0.743 | 0.445 | 0.477 | 0.491 | 0.465 | 0.419 | 1.1 | 1.07 | 1.04 | 1.01 | 1.1 | 0.419 | 0.7 | 0.41 | 0.595 | 0.366
H3255 | 0.874 | 0.884 | 0.825 | 0.79 | 0.726 | 1.08 | 0.917 | 0.852 | 0.832 | 0.734 | 0.24 | 0.243 | 0.302 | 0.272 | 0.269 | 1.02 | 1.03 | 0.964 | 0.772 | 0.704
NCI-H23 | 0.638 | 0.542 | 0.516 | 0.488 | 0.39 | 0.264 | 0.263 | 0.243 | 0.188 | 0.23 | 1.26 | 1.02 | 1.02 | 1.22 | 1.2 | 0.194 | 0.237 | 0.208 | 0.173 | 0.233
